{"source": "patent US8946197B2", "about": "“Transglutaminase TG2 inhibitors, pharmaceutical compositions, and methods of use thereof” (CHDI Foundation, Inc., priority 2009, dated 2015)", "note": "“And” between values parts separate entries of the source, which are not always exact repeats. Equal entries are not always repeated.", "data": [{"biological_target": "T1, human TG2 (Homo sapiens, UniProt P21980)", "T1 sequence (P21980 1-687)": "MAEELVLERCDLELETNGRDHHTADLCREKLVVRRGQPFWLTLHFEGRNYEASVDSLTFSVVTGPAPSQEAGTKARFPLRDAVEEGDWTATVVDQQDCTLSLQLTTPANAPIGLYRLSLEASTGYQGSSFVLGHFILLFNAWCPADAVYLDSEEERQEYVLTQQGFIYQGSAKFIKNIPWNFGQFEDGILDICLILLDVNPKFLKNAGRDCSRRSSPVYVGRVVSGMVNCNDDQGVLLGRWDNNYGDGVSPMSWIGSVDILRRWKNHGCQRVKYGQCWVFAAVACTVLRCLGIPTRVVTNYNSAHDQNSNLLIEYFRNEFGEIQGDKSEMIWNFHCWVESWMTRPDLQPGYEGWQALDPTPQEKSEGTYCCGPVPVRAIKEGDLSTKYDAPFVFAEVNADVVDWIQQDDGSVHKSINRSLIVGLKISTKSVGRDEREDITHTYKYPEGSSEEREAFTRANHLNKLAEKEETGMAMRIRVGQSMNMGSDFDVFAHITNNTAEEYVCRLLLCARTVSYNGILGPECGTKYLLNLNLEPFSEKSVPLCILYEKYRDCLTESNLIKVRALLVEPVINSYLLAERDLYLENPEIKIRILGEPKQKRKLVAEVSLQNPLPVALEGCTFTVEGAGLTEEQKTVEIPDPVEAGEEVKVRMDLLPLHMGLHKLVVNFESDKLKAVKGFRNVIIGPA", "test": "fluorescent screening assay for human TG2", "format": "biochemical", "settings": "20 nM TG2, 8 μM N,N-dimethylated Casein, 16 μM KxD, pH 7.4, 37° C", "summary_of_the_method": "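20 nM TG2 with 8 μM N,N-dimethylated casein and 16 μM K×D in 25 mM Hepes pH 7.4, 250 mM NaCl, 2 mM MgCl2, 0.5 mM CaCl2, 0.2 mM DTT, 0.05% Pluronic F-127 at 37° C. Fluorescence (ex 350, em 535 nm) was read every 3 min for up to 2 h. Initial linear velocity served as activity.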", "values": [{"compound": "C=CC(=O)Nc1ccc(S(=O)(=O)N2CCN(C(=O)C3CCOCC3)CC2)cc1", "note": "[N-{4-[4-(Tetrahydro-pyran-4-carbonyl)-piperazine-1-sulfonyl]-phenyl}-acrylamide]", "IC50": "100 to 1000 nM and < 100 nM"}, {"compound": "C=CC(=O)Nc1ccc(S(=O)(=O)NCc2ccc(-c3ccccc3)nc2)cc1", "note": "[N-{4-[(6-Phenyl-pyridin-3-ylmethyl)-sulfamoyl]-phenyl}-acrylamide]", "IC50": "1000 to 25000 nM"}, {"compound": "C=CC(=O)Nc1ccc(S(=O)(=O)N(Cc2ccccc2)Cc2ccc(Cl)cc2)cc1", "note": "[N-{4-[Benzyl-(4-chloro-benzyl)-sulfamoyl]-phenyl}-acrylamide]", "IC50": "1000 to 25000 nM"}, {"compound": "C=CC(=O)Nc1ccc(S(=O)(=O)N(C)Cc2csc(N3CCOCC3)n2)cc1", "note": "[N-{4-[Methyl-(2-morpholin-4-yl-thiazol-4-ylmethyl)-sulfamoyl]-phenyl}-acrylamide]", "IC50": "1000 to 25000 nM"}, {"compound": "C=CC(=O)Nc1ccc(S(=O)(=O)N(C)Cc2cccc(CN3CCCC3)c2)cc1", "note": "[N-{4-[Methyl-(3-pyrrolidin-1-ylmethyl-benzyl)-sulfamoyl]-phenyl}-acrylamide]", "IC50": "1000 to 25000 nM"}, {"compound": "C=CC(=O)Nc1ccc(S(=O)(=O)N2CCC(N(C)C(=O)OC(C)(C)C)CC2)cc1", "note": "[[1-(4-Acryloylamino-benzenesulfonyl)-piperidin-4-yl]-methyl-carbamic acid tert-butyl ester]", "IC50": "100 to 1000 nM and < 100 nM"}, {"compound": "C=CC(=O)Nc1ccc(S(=O)(=O)N(C)CCN(C)C(=O)OCc2ccccc2)cc1", "note": "[{2-[(4-Acryloylamino-benzenesulfonyl)-methyl-amino]-ethyl}-methyk-carbamic acid benzyl ester]", "IC50": "1000 to 25000 nM"}]}]}
